US20220288102A1, “Compounds for Hepatitis B Treatment” (Agency for Science, Technology and Research, priority 2019, published 2022)
“Also recorded” adds a separate entry of the source.

Legend:
[1] = Cytotoxicity in HepG2 2.15 cells; type: cell-based; conditions: human, Hep G2 2.15 cells
Protocol: In block 205, a primary screen of the library of compounds was done in HepG2 2.15 cells to determine the inhibitory activity of HBsAg (the surface antigen of the Hepatitis B virus which indicates hepatitis B infection in patients) and parallel cytotoxicity. In block 310, the hit compounds (“HITS” or “HITs”) were determined by identifying compounds with certain criteria. […] In the preliminary screen, the compounds are typically tested at higher concentrations than expected and may lead to greater than desired cytotoxicity (>20%). For example, the compounds may be tested at 3 μM (data shown herein) or 10 μM. However, the compound was subsequently further tested in a proper dose response manner (described below) to determine whether the drug is able to elicit the antiviral response (decrease in HBsAg levels) with low cytotoxicity (i.e. <20% cytotoxicity).
From the primary high throughput screen of 151 epigenetic modulators in the SelleckChem compound library at a 3 μM concentration, 16 hit compounds were identified to have good antiviral activity resulting in high HBsAg loss (>50%) and low cytotoxicity (<20%) and the results are shown in FIG. 3.
A secondary screen of the hit compounds was done to determine the EC50 of the hit compounds. […] Some of the other compounds were determined to be less suitable. […] The MI-2 EC50 is very high and appers to be dependent on the toxic nature of the compound and was not a viable option. The percentage inhibition curve of MC1568, OF-1 and tofacitinib in FIG. 4 are close to 0 in the vertical axis and may not be readily seen in FIG. 4. It may be seen that the secondary screen is able to filter off unsuitable compounds from the primary screen.

[2] = system: extracellular HBV DNA; test: Extracellular HBV DNA (qPCR) in infected primary human hepatocytes; type: cell-based, Hepatitis B virus; conditions: HBVcc-infected primary human hepatocytes, compound treatment 3 μM
Protocol: HBV extracellular DNA was extracted from 200 μL of cell culture supernatant collected at the end of the experiment as indicated on the figure legends. DNA was extracted according to the QIAamp DNA Mini Kit (Qiagen).
(§1) FIG. 8 briefly describes an experimental model of the method to infect the cells with HBV, treatment with drugs, and subsequent analysis. The primary human hepatocytes were seeded in a 96 well plate coated with Collagen I (30 minutes at room temperature) with DMSO (1%) induction. The next day, the cells were infected with purified HBV with a multiplicity of infection (MOI) of 500 (i.e. the ratio of the infection agent (HBV) to the infection target (cell)) in media containing 4% polyethylene glycol 8000 (PEG-8000) and 1% DMSO (day 0). On the next day, the infected cells were washed vigorously to remove excess virus by washing 3 times without removing the spent media completely and treated with the test compounds at 3 μM concentration (day 1). In addition. the supernatant was collected at day 3 and the cells pulsed again with the test compounds at 3 μM concentration. At day 5, the supernatant was collected for analysis with the HBsAg ELISA and finally at day 8 cells were lysed for DNA isolation, eHBV analysis and cccDNA analysis. This allows comparison of the effects of the compounds on day 3 and day 5. Some of the cells were fixed, permeabalized and stained with antibody to HBcAg to determine HBcAg levels via IFA.

[3] = system: HBsAg; test: HBsAg inhibition in HepG2 2.15 cells (primary screen and dose response, HBsAg ELISA); type: cell-based, Hepatitis B virus; conditions: for HBsAg inhibition, dose response curve / percentage inhibition curve (HBsAg): 8-point dose response in HepG2 2.15 cells starting from 30 μM; for IC50: Hepatitis B virus, HepG2.2.15, read-out: IC50 (HBsAg); for percentage inhibition curve (HBsAg): FIG. 4
Protocol: HBsAg ELISA. HBsAg ELISA was carried out as described in detail below. In brief 25 μL of the cell culture supernatant was collected at the indicated timepoints on the figure legends and was used for the HBsAg ELISA.
Procedure • 1. Coat microwells with 25 ul per well of mouse monoclonal [86C] diluted in coating buffer (6 ug per ml; 300 ul from 0.2 mg/ml stock in 10 ml of coating buffer)(150 ng/well). • 2. Seal plate and incubate overnight at 4° C. • 3. Aspirate wells and wash 3 times with 50 ul/well of wash buffer. • 4. After last wash, invert plate and blot on c-towel and spin 1000 rpm for 1 min to remove residual solution. • 5. Block plates with 75 ul/well of assay diluent. Incubate at RT for 2 hrs. • 6. Aspirate/wash as in step 3. • 7. Prepare 4000 ng/ml of active HBS Ag (Adw) full length protein in assay diluent and titrate 2 fold for 12 different decreasing concentration. Pipette 25 ul of sample and different dilutions of active HepB surface Ag (Adw) into appropriate wells. Seal plate and incubate for 2 hrs at RT. • 8. Aspirate/wash as in step 3 but with total 5 washes. • 9. Add 25 ul of working detector (Rabbit polyclonal to HBS-Biotin (4500 ng/ml)+SAv-HRP (1:1000) reagent to each well. Seal plate and incubate for 1 hr at RT. • 10. Aspirate/wash as in step 3 but for 7 washes. • 11. Add 25 ul of TMB substrate solution to each well and incubate plate for 30 minutes at RT in dark. • 12. Add 25 ul of stop solution (1N HCl) to each well, read absorbance at 450 nm within 30 minutes of stopping reaction.
In block 205, a primary screen of the library of compounds was done in HepG2 2.15 cells to determine the inhibitory activity of HBsAg (the surface antigen of the Hepatitis B virus which indicates hepatitis B infection in patients) and parallel cytotoxicity. In block 310, the hit compounds (“HITS” or “HITs”) were determined by identifying compounds with certain criteria. […] For example, the compounds may be tested at 3 μM (data shown herein) or 10 μM.
A secondary screen of the hit compounds was done to determine the EC50 of the hit compounds.

[4] = system: HBV in HepAD38.7 cells; test: Secondary validation of the drug screen in HepAD38.7 cells; type: cell-based, Hepatitis B virus
Protocol: In block 215, a secondary screen was conducted to determine the EC50 values (the effective concentration to obtain 50% activity or inhibition) of the HIT compounds. In block 220, the hit compounds were tested in HEPAD38.7 HBV live infection models to determine the robustness of the hit compounds, i.e. whether the hit compounds are effective. In block 225, the novel lead compounds or scaffold structures are identified and mechanism of action (MOA) studies for target engagement were developed. In block 230, the lead compound is optimised and validated or if the compound is known but for a different non-biological use or biological target, the compound may be repurposed for the inhibition of HBV. In block 235, the efficacy of the compound was determined in animal models.
A secondary validation of the drug screen in HepAD38.7 cells and a functional gene knockdown using Lipofectamine 3000 reagent was also performed. The genes selected were the annotated targets of the selected epigenetic inhibitors.

[5] = system: primary human hepatocytes; test: Cytotoxicity (CCK-8) in infected primary human hepatocytes; type: cell-based; conditions: 3 μM
[6] = system: cccDNA; test: cccDNA (qPCR) in infected primary human hepatocytes; type: cell-based, Hepatitis B virus; conditions: HBVcc-infected primary human hepatocytes, compound treatment 3 μM
Protocol: The DNA is isolated from the cellular lysate, purification with Plasmid safe ATP-dependent DNAse is performed to remove non-circular DNAs (relaxed circular DNA). cccDNA levels are then measure using a Taqman-probe based quantitative polymerase chain reaction.
as §1, with “Some of the cells were fixed, permeabalized and stained with antibody to HBcAg to determine HBcAg levels via IFA.” left out

[7] = system: HBsAg; test: HBsAg ELISA in HBV-infected primary human hepatocytes; type: cell-based, Hepatitis B virus; conditions: 3 μM
Protocol: HBV infection of PHH. Primary human hepatocytes were infected at […] in presence of 4% PEG8000 and 1% DMSO as described earlier. The samples, cell lysate for RNA and or DNA as well as cell culture supernatant were harvested at indicated timepoints on figure legends.
Procedure • 1. […] Seal plate and incubate overnight at 4° C. • 3. […] Block plates with 75 ul/well of assay diluent. Incubate at RT for 2 hrs. • 6. Aspirate/wash as in step 3. • 7.
as §1

Row | SMILES | IC50 [1] [µM] | HBsAg inhibition, dose response curve [3] | IC50 [3] [nM] | antiviral effect in HepAD38 cells [4] | also measured
1 | Cc1cc(Nc2nc(N[C@@H](C)c3ccc(F)cc3)c(C#N)cc2F)n[nH]1 [AZ960] | 0.231 | suitable dose response curve | 193 |  | extracellular HBV DNA levels in the cell culture supernatant [2]: reduces extracellular HBV DNA levels more than Entecavir
2 | COc1cc(Nc2ncc3c(n2)-c2ccc(Cl)cc2C(c2c(F)cccc2OC)=NC3)ccc1C(=O)O [Alisertib] |  | not as efficacious |  | did not show an effect | 
3 | Cc1nc(N)sc1-c1ccnc(Nc2ccc(N3CCOCC3)cc2)n1 [CYC-116] | 1.49 | suitable dose response curve | 420 | significantly higher antiviral activity | extracellular HBV DNA levels in the cell culture supernatant [2]: reduces extracellular HBV DNA levels more than Entecavir; cytotoxicity level (CCK-8) [5]: higher cytotoxicity levels; cccDNA levels in the cell lysate [6]: lowest measured cccDNA levels; HBsAg levels ([7]; Day 3 and Day 5): reduces HBsAg levels more than Entecavir; also recorded: lowest HBsAg levels
4 | C=C1[C@H](CO)[C@@H](O)C[C@@H]1n1cnc2c(=O)[nH]c(N)nc21 [Entecavir] |  |  |  |  | cytotoxicity level (CCK-8) [5]: low toxicity levels
5 | Cn1c(/C=C/C(=O)NO)ccc1/C=C/C(=O)c1cccc(F)c1 [MC-1568] |  |  |  |  | percentage inhibition curve (HBsAg) [3]: ~0%
6 | CCCc1cc2c(N3CCN(C4=NCC(C)(C)S4)CC3)ncnc2s1 [MI-2] |  |  |  |  | EC50 ([3]; secondary screen, HepG2 2.15 cells): very high
7 | CC(C)c1cc2c(N3CCN(C4=NCC(C)(C)S4)CC3)ncnc2s1 [MI-3] | 4.37 | suitable dose response curve | 1120 |  | 
8 | CCCCN(Cc1ccc(C(=O)NO)cc1)C(=O)Nc1ccccc1 [Nexturastat A] | 3.58 | suitable dose response curve | 980 | significantly higher antiviral activity | HBsAg levels ([7]; Day 3 and Day 5): reduces HBsAg levels more than Entecavir
9 | COc1cc2c(cc1NS(=O)(=O)c1ccc(Br)cc1C)n(C)c(=O)n2C [OF-1] |  |  |  |  | percentage inhibition curve (HBsAg) [3]: ~0%
10 | CCS(=O)(=O)c1cccc(-c2cc(C(=O)NC3CCN(C)CC3)c(C)c3[nH]c4ncc(C)cc4c23)c1 [TAK-901] | 11 | suitable dose response curve | 400 | significantly higher antiviral activity | extracellular HBV DNA levels in the cell culture supernatant [2]: reduces extracellular HBV DNA levels more than Entecavir; cytotoxicity level (CCK-8) [5]: higher cytotoxicity levels; cccDNA levels in the cell lysate [6]: lowest measured cccDNA levels; HBsAg levels ([7]; Day 3 and Day 5): reduces HBsAg levels more than Entecavir
11 | C[C@@H]1CCN(C(=O)CC#N)C[C@@H]1N(C)c1ncnc2[nH]ccc12 [Tofacitinib] |  |  |  |  | percentage inhibition curve (HBsAg) [3]: ~0%
12 | CN1CCc2c(c3ccccc3n2Cc2ccc(C(=O)NO)cc2)C1.Cl [Tubastatin A HCl, Tubastatin A hydrochloride salt] | 7.21 | suitable dose response curve | 2000 | significantly higher antiviral activity | HBsAg levels ([7]; Day 3 and Day 5, hydrochloride salt): reduces HBsAg levels more than Entecavir; also recorded: lowest HBsAg levels
